Experimental data reported in patent US11306361B2, “Pathology prognosis method” (CENTRE NATIONAL DE LA RECHERCHE SCIENTIFIQUE, priority 2015, dated 2022).
Numbered stars: 1 amine (or outer) side, 2 acyl side, 3 side chain; on linkers, the order of the positions; unused ones are H or OH. Bridge positions count the residues as written; N and C are the ends. Square brackets hold non-standard residues; d marks the D form. Peptide text beside a SMILES is read from it. I, II: the chains in the order shown. Actinocin(9to1) = Cc1c2oc3c(C)ccc(C(=O)[*:1])c3nc-2c(C(=O)[*:2])c(N)c1=O; NMeV = CN[C@H](C(=O)O)C(C)C; Sar = CNCC(=O)O

Assays:
[1] = test system: MEF cells transformed with RAS-G12V/DNP53 and MMTV-ErbB2 tumor cells; assay: Measurement of cell death (apoptosis) in transformed tumor cells; assay type: cell-based, mouse; conditions: for apoptosis rates versus quantity of Cyclin D1: MEFs transformed with P53 negative dominant and RAS G12V, null, low or high Cyclin D1, FIG. 23
Protocol: (§1) Cell death is induced by exposure to actinomycin D A9415, Sigma, for 6 h, 5-Fluoro uracil (Fluorouracil Winthrop, Sanofi-Aventis) for 24 h, or ethanol (20821.330, VWR) for 6 h and inhibited by exposure to Q-VD-Oph (SML0063, Sigma).
(§2) The cells are washed twice in PBS 1×, unstuck with trypsin and reacted in a marking buffer (10 mM of Hepes pH=7.4, sodium chloride 150 mM, KCl 5 mM, MgCl2 1 mM, CaCl2 1.8 mM). Then the cells were marked with […]-fluorescein isothiocyanate (BD Biosciences) according to the manufacturer's instructions in 0.5 μg/mL of propidium iodide (PI; Sigma-Aldrich P-4170). After 15 min. of incubation in the dark, the cells are analyzed by flux cytometry. The living cells are Annexin V and PI double negatives and the apoptotic cells are positive for Annexin V and negative for PI.

[2] = test system: MEFs transformed with the mouse T antigen; assay: Apoptosis and PARP cleavage in cell lines immortalized by the T antigen; assay type: cell-based; conditions: FIG. 15; for induced apoptosis as a function of Cyclin D1 level: T antigen immortalized cells, wild vs Ntag/Ntag vs −/−; for cleavage of the PARP: cells with low Cyclin D1 level
Text: (§3) The antibodies used are the following: anti-HA (HA.11 Clone 16B12, Eurogentec or Anti-HA EPITOPE TAG-600-401-384, Tebu-bio or Hemagglutinin (HA) Rabbit Polyclonal Antibody, Life Technologies), anti-Cyclin D1 (sc-450, Santa Cruz or MS-210-PABX (AB1), Fisher Scientific or RB-010-PABX (AB3), Fisher scientific), anti-RB total (sc-74562, Santa Cruz), anti-Phospho-RB (Ser780) (9307, Cell signaling), anti-Actin (ab6276, Abcam), anti-Tubulin (T9026, Sigma-Aldrich), anti-Ras (BD610002, BD Biosciences), anti-FLAG (F7425, Sigma-Aldrich), anti-cleaved PARP (ab32064, Abcam), anti-VASA (ab13840, Abcam), anti-Thyrosine Hydroxylase (MAB318, Merck Millipore). The secondary antibodies used are coupled with peroxidase (signaling), and the detection of the complexes is done using the enhanced chemiluminescence detection kit (Millipore).
as §1, §2

[3] = test system: RAS or ErbB2 cancer cells; assay: Western blot of cleaved PARP in tumor cells; assay type: cell-based, mouse; conditions: after treatment with 5-FU; limited by Cyclin D1; FIG. 27
Text: as §3

[4] = test system: male germinal cells; assay: Methoxyacetic acid treatment, mouse testicles; assay type: in vivo
Protocol: The mice were sacrificed 14 hours after treatment, for the postmortem analyses.
as §3

[5] = test system: dopaminergic neurons; assay: 6-OHDA lesions, survival of mice; assay type: in vivo, mouse; conditions: FIG. 9
Protocol: The mice were anesthetized with a mixture of ketamine (Imalgene 500, 50 mg/mL, Merial), 0.9% saline solution (weight/vol) and xylazine (Rompun 2%, […], Bayer) (2:2:1, i.p., 0.1 mL/30 g) and mounted on a stereotaxic apparatus. The 6-OHDA-HCl (Sigma) was dissolved in 0.02% ascorbic acid in a saline solution at a concentration of 3 μg of 6-OHDA/μL. Each mouse received two unilateral injections of 6-OHDA (2 μL/injection) in the right dorsal striatum, according to the following coordinates (in mm): anteroposterior +1, mediolateral −2.1, dorsal ventral −3.1 and anteroposterior +0.3, mediolateral −2.3, and dorsal ventral −3.1. The animals are then released and received a daily injection of glucose solution (50 mg/mL, subcutaneous).

[6] = test system: substantia nigra; assay: Methamphetamine model of dopaminergic neurons in mice
Protocol: The methamphetamine was dissolved in a saline solution at 0.9% (weight/volume) sodium chloride, and injected at a rate of 10 mL/Kg. Several doses of methamphetamine (3 doses of 5 mg/kg at 3 h intervals) were injected intraperitoneally, the first dose being injected at noon. The control mice were treated with the saline solution alone. The mice were sacrificed 24 hours after treatment, for the postmortem analyses.
The mouse organs were washed with PBS 1× at 37° C. and lysed in HTRF buffer (Tris 10 mM, EDTA 1 mM, 0.05% NP-40) using a cell homogenizer. After centrifugation at 16000 g for 5 min., the samples were normalized by adjusting the total quantity of DNA (nanodrop, Thermo Scientific) at 500 ng/mL.

[7] = mice expressing N-terminal tagged Cyclin D1 relative to wild mice, intraperitoneal injection

Cc1c2oc3c(C)ccc(C(=O)N[C@@H]4C(=O)N[C@H](C(C)C)C(=O)N5CCC[C@H]5C(=O)N(C)CC(=O)N(C)[C@@H](C(C)C)C(=O)O[C@@H]4C)c3nc-2c(C(=O)N[C@@H]2C(=O)N[C@H](C(C)C)C(=O)N3CCC[C@H]3C(=O)N(C)CC(=O)N(C)[C@@H](C(C)C)C(=O)O[C@@H]2C)c(N)c1=O [actinomycin D] (I: T[dV]P[Sar][NMeV] / II: T[dV]P[Sar][NMeV]; ester I:1-I:C, II:1-II:C; linker I:N-II:N via Actinocin(9to1))
apoptosis rates versus quantity of Cyclin D1 [1]: the quantity of Cyclin D1 correlates with the decrease in the apoptosis rates | induced apoptosis as a function of Cyclin D1 level [2]: increases with a low Cyclin D1 level | cleavage of the PARP [2]: strong cleavage of the PARP

O=c1[nH]cc(F)c(=O)[nH]1 [5-FU, 5-fluorouracil]
levels of cleaved PARP [3]: increase | apoptosis rates versus quantity of Cyclin D1 [1]: the quantity of Cyclin D1 correlates with the decrease in the apoptosis rates

COCC(=O)O [MAA, methoxyacetic acid]
Cyclin D1 in testicles (HTRF) ([4]; 14 hours after intraperitoneal injection at 150 mg/kg, FIG. 13): decrease | cleaved PARP rate in testicles [4, 7]: increase | germinal cell marker (Vasa) in testicles [4, 7]: massive loss

CCO [ethanol]
induced apoptosis as a function of Cyclin D1 level [2]: increases with a low Cyclin D1 level | cleavage of the PARP [2]: strong cleavage of the PARP

CC(C)[C@H](NC(=O)c1ccc2ccccc2n1)C(=O)N[C@@H](CC(=O)O)C(=O)COc1c(F)cccc1F [Q-VD-Oph]
apoptosis induced by 5-FU or ethanol ([1]; RAS and ErbB2 lines, Q-VD-Oph 20 μM, FIGS. 24 and 25): shunts the apoptosis

NCCc1cc(O)c(O)cc1O [6-OHDA, 6-hydroxy dopamine]
survival of wild mice ([5]; CCND1+/+ mice, intrastriatal injection): survive treatment | survival of mice expressing N-terminal tagged Cyclin D1 ([5]; mice expressing little Cyclin D1, intrastriatal injection): die several days after

CN[C@@H](C)Cc1ccccc1 [methamphetamine]
quantity of Cyclin D1 in the substantia nigra (HTRF) ([6]; CCND1Ntag/Ntag mice, 24 hours after intraperitoneal injection, FIG. 8): decreases | cerebral lesions ([6]; animals expressing little Cyclin D1, intraperitoneal 5 mg/kg): increase in cerebral lesions
